PMC8715118, “Assessing potentiation of the (α4)3(β2)2 nicotinic acetylcholine receptor by the allosteric agonist CMPI” (The Journal of Biological Chemistry, 2021)
Where two headings read alike, the source gives them in different places.

Assays:
Assay type in all cases: cell-based
[1] = biological target: T1, (α4)3(β2)2 nAChR (Homo sapiens, UniProt P17787+P43681); assay: Two-electrode voltage-clamp whole-cell currents, Xenopus oocytes expressing WT (α4)3(β2)2 nAChR
T1 construct: expressed in transfected cells; host or cells: Xenopus laevis oocytes injected with cRNA, 8:1 α4:β2
Protocol: (§1) Oocytes-positive female Xenopus laevis were purchased from NASCO, and all procedures were performed according to an animal use protocol approved by the Institutional Animals Care and Use Committee of The University of Texas Health Science Center at Tyler. Ovarian lobules were surgically harvested, treated with collagenase type 2, and Stage V and VI oocytes were visually selected and maintained at 18 °C in modified ND96-gentamicin buffer (96 mM NaCl, 2 mM KCl, 1.8 mM CaCl2, 1 mM MgCl2, 5 mM Hepes, and 50 μg/ml gentamicin, pH 7.6).
(§2) pSP64 Poly(A) plasmids with cDNA encoding for human α4 or β2 nAChR subunit were used to prepare cRNA transcripts suitable for oocyte expression. The plasmids were linearized with AseI (hα4) and PvuII (hβ2), then cRNA transcripts were prepared in vitro using mMESSAGE mMACHINE high yield-capped RNA transcription kits (Ambion, Thermo Fisher Scientific), purified on NucAway Spin column (Invitrogen, Thermo Fisher Scientific), and stored at −80 °C until used. Point mutations within the plasmid encoding the α4 nAChR subunit were introduced using QuikChange II Site-Directed Mutagenesis Kit (Agilent Technologies), as described previously ([28]). To generate amino acid substitutions (K64T, E66I, H116V, H116L, and H116A), two custom-designed complementary oligos containing the desired mutation were used (Integrated DNA Technologies). The forward primers were as the following with the codon for mutated amino acids are underlined and nucleotide(s) changes are bolded and italicized:
(§3) The oocytes were injected with 10 to 50 ng of a cRNA mix containing α4 (WT or mutant) and β2 RNAs at ratios of 8:1(α4:β) or 1:8 (α4:β2) to bias expression toward (α4)3(β2)2 or (α4)2(β2)3 nAChRs, respectively. The injection of oocytes with RNAs mixture containing four folds or higher α4 RNA than β2 RNA have been established to express receptor population that is made up of three α4 and two β2 subunits ([9], [12], [28], [43], [44], [45]).
(§4) 24 to 72 h after cRNA injection, Xenopus oocytes were placed in a custom-made recording chamber that is connected to an eight-channel automated perfusion system (Warner Instruments) and perfused with recording buffer (100 mM NaCl, 2 mM KCl, 1 mM CaCl2, 0.8 mM MgCl2, 1 mM EGTA, and 10 mM Hepes, pH 7.5). Unless otherwise specified in figure legends, each recording run included several drug applications (10 s of an agonist with or without CMPI or NS9283) separated by 3 to 4 min buffer wash intervals. Between recording runs, the oocytes were washed with recording buffer for at last 5 min. The oocytes were voltage-clamped at −50 mV using Oocyte Clamp OC-725B (Warner Instruments). The currents were digitized using Digidata 1550A (Axon Instruments, Molecular Devices), and the peak currents were quantified using pCLAMP 10 (Axon Instruments), then normalized and analyzed using Excel 2010 (Microsoft) and SigmaPlot 11.0 (Systat Software). For NS9283 and CMPI potentiation of agonist-induced responses, the peak currents were normalized to current elicited by agonist alone applied within the same recording run. For the effect of coapplication of 1 μM NS9283 or CMPI on agonist concentration-response curve, the peak currents were normalized to current elicited by saturating concentration of agonist applied within the same recording run. […] I0 = 100 for NS9283 and CMPI potentiation of agonist-induced responses and I0 = 0 for agonist concentration-response experiments. The best-fit values for Imax and EC50 ± SD are presented.

[2] = biological target: T1, (α4)3(β2)2 nAChR; assay: Mechanistic (Monod-Wyman-Changeux two-state model) analysis of current responses, WT (α4)3(β2)2 nAChR; details: α4:β2 site, WT
From the text: To gain mechanistic insight into receptor activation in the presence of CMPI, we analyzed the currents in the framework of a cyclic two-state (resting and active) allosteric activation model ([31], [32], [33]). In this model, channel opening is mediated by stabilization of the active state by an agonist that, by definition, has higher affinity to the active than resting state.
We commenced by converting the raw amplitudes of current responses to units of probability of being in the active state (PA units).
(§5) Further analysis of electrophysiological data was conducted in the framework of the two-state concerted transition model, adapted from the MWC cyclic model originally used to describe enzyme function ([31], [32], [33]). The raw peak amplitudes of current responses were converted to units of probability of being in the active state (PA).
(§6) The numbers of α4:β2 and α4:α4 binding sites (Nα4:β2 and Nα4:α4) were constrained to 2 and 1, respectively.
(§7) The concentration-response curve for TC-2559 was fitted to the following equation:(3) PA=1/1+L[1+[TC-2559]/KR,TC-2559,α4:β2/1+[TC-2559]/(KR,TC-2559,α4:β2cTC-2559,α4:β2)]^Nα4:β2
(§8) The concentration-response data were analyzed using Equation 3, with the value of L modified to reflect receptor activation by TC-2559, and the affinity and efficacy terms in the equation reflecting the values for CMPI. The number of binding sites for CMPI in Equation 3 was constrained to 1.
(§9) Curve fitting was done using Origin 2020 (OriginLab Corp). The results are reported as best-fit parameter ±SD of the fit. All data are included in the analysis.

[3] = biological target: T2, (α4)2(β2)3 nAChR (Homo sapiens, UniProt P17787+P43681); assay: Two-electrode voltage-clamp whole-cell currents, Xenopus oocytes expressing (α4)2(β2)3 nAChR
T2 construct: expressed in transfected cells; host or cells: Xenopus laevis oocytes injected with cRNA, 1:8 α4:β2
Protocol: as §1
pSP64 Poly(A) plasmids with cDNA encoding for human α4 or β2 nAChR subunit were used to prepare cRNA transcripts suitable for oocyte expression. The plasmids were linearized with AseI (hα4) and PvuII (hβ2), then cRNA transcripts were prepared in vitro using mMESSAGE mMACHINE high yield-capped RNA transcription kits (Ambion, Thermo Fisher Scientific), purified on NucAway Spin column (Invitrogen, Thermo Fisher Scientific), and stored at −80 °C until used. […]
Two-electrode voltage-clamp recordings of ACh- or TC-2559 induced responses of Xenopus oocytes were performed, as described in ([28]). […] The currents were digitized using Digidata 1550A (Axon Instruments, Molecular Devices), and the peak currents were quantified using pCLAMP 10 (Axon Instruments), then normalized and analyzed using Excel 2010 (Microsoft) and SigmaPlot 11.0 (Systat Software). […]

[4] = biological target: T3, (α4H116A)3(β2)2 nAChR (Homo sapiens, UniProt P17787+P43681, H142A); assay: Mechanistic (Monod-Wyman-Changeux two-state model) analysis of current responses, (α4H116A)3(β2)2 nAChR; details: α4H116A mutant; for Kd: read-out: KR, equilibrium dissociation constant in the resting receptor
T3 construct: expressed in transfected cells; host or cells: Xenopus laevis oocytes injected with cRNA, 8:1 α4:β2
Protocol: as §5, §6, §7, §8, §9

[5] = biological target: T3, (α4H116A)3(β2)2 nAChR; assay: Two-electrode voltage-clamp, oocytes expressing (α4H116A)3(β2)2 nAChR
Protocol: as §1, §2, §3, §4

T1 sequence (P43681 27-627): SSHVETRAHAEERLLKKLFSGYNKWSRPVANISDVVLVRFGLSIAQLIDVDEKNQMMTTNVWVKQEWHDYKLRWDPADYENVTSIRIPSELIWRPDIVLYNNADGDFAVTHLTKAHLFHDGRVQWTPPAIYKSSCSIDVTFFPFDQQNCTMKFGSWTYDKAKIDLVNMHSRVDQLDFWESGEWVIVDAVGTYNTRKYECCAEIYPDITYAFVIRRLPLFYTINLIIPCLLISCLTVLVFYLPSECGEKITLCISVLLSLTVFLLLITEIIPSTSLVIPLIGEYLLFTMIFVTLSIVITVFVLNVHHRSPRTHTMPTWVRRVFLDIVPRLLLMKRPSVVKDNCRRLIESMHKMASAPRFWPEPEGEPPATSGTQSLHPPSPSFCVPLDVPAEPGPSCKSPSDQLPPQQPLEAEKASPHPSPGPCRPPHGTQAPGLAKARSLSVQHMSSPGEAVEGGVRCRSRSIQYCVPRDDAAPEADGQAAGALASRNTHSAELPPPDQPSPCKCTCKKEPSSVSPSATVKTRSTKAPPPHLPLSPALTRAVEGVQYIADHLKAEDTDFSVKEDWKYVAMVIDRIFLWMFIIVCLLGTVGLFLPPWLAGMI
T1 sequence (P17787 26-502): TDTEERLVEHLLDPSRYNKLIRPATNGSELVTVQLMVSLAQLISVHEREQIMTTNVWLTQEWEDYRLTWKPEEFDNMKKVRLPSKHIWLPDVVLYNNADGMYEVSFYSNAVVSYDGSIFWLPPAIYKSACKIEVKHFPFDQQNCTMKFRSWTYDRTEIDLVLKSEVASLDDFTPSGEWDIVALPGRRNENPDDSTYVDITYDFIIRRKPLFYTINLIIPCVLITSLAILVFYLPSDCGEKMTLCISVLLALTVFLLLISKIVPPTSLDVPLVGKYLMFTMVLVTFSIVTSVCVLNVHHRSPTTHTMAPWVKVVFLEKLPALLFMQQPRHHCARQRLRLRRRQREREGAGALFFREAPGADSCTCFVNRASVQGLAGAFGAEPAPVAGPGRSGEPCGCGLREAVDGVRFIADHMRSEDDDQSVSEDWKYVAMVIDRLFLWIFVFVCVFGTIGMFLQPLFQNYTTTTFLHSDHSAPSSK
T3 sequence (P43681 27-627 H142A): as the sequence (P43681 27-627) above, with H116A counted along it
T3 sequence (P17787 26-502): as the sequence (P17787 26-502) above
T2 sequence (P43681 27-627): as the sequence (P43681 27-627) above
T2 sequence (P17787 26-502): as the sequence (P17787 26-502) above

CCOc1cncc(/C=C/CCNC)c1 [TC-2559]
I30 μM TC-2559, % of current induced by 1 mM ACh ([1]; 30 μM TC-2559): 11 ± 2%
Emax, % of current induced by 1 mM ACh ([1]; WT): ~10%
EC50 ([1]; agonist alone, read-out: agonist EC50): 340 ± 40 nM
c, ratio of equilibrium dissociation constants active/resting receptor [2]: 0.371 ± 0.006
Kd ([2]; read-out: KR, equilibrium dissociation constant in the resting receptor): 330 ± 50 nM
I30 μM TC-2559, % of current induced by 1 mM ACh ([3]; 30 μM TC-2559): 152 ± 21%
EC50 ([3]; agonist alone): 540 ± 20 nM
c, ratio of equilibrium dissociation constants active/resting receptor ([4]; α4:α4 site): 0.046 ± 0.003
Kd ([4]; α4:α4 site): 70000 ± 3000 nM
c, ratio of equilibrium dissociation constants active/resting receptor ([4]; α4:β2 site): 0.337 ± 0.013
Kd ([4]; α4:β2 site): 210 ± 50 nM
Emax, % of current induced by 1 mM ACh [5]: 182 ± 5%
Emax ([5]; absence of CMPI, normalized to 100 μM TC-2559): 115 ± 14%
EC50 ([5]; absence of CMPI, read-out: EC50 of TC-2559): 22000 ± 7000 nM

C=CC(C)(C)c1[nH]c2cc(Br)ccc2c1CCNC [dFBr, desformylflustrabromine]
peak response to 1 mM ACh, % of control ([1]; 1 mM ACh + 3 μM dFBr): 278 ± 36%
